Peptide text beside a SMILES is read from it. * marks the point of attachment. Dansyl = CN(C)c1cccc2c(S(=O)(=O)*)cccc12
What was measured:
N-SH3 E140A (Crkl) = target: T1, N-SH3 E140A (Crkl) (Homo sapiens, UniProt P46109, E140A); assay: Stopped-flow kinetic binding, N-SH3 E140A versus C3G277–296; details: pH 7.5, E140A, 50 mM Hepes pH 7.5, 10 °C
T1 construct: The construct encoding the N-SH3 domain of Crkl was subcloned in a pET28b+ plasmid vector; His-tag; made in house; host or cells: E. coli BL21
T1 sequence (P46109 123-183 E140A limits assumed): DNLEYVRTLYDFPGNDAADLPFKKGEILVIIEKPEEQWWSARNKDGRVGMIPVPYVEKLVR
Experimental: (§1) We rapidly mixed a constant concentration of C3G277–296 peptide (0.5 µM) versus increasing concentrations of N-SH3 (ranging from 0.5 to 5 µM) and the observed rate constants (kobs) obtained at different ionic strength conditions (buffer Hepes 50 mM, pH 7.0, 0.15 M, 0.3 M, 0.5 M and 1 M NaCl) were plotted as function of concentration of N-SH3 and fitted with a linear equation (Figure 1). By following previously derived equations [19, 20], the dependence of kobs as function of [N-SH3] was fitted with Equation (1), taking into account the non-pseudo-first order conditions, allowing us to calculate the microscopic association rate constant (kon), the microscopic dissociation rate constant (koff) of the binding reaction and the equilibrium dissociation rate constant KD, such as koff/kon. To increase the reliability of the calculated KD, we resorted to directly obtaining a koff value through displacement experiments (Table 1), in which a preincubated complex of N-SH3 domain and dansylated C3G277–296 peptide (at the concentration of 0.5 and 2 µM, respectively) were rapidly mixed versus a high excess of nondansylated peptide (ranging from 20 to 40 µM). In agreement with the theory in [21], the observed rate constants were insensitive to displacer concentration. In all binding and displacement experiments conducted, traces were satisfactorily fitted with a single-exponential equation. (1) kobs=(kon^2∗(2−[NSH3])^2+koff^2+2konkoff(2+[NSH3]))^1/2
Then, we employed D138A, E140A and D141A variants in kinetic binding experiments with C3G, and we explored the effect of increasing ionic strength on the binding reaction of these variants.
(§2) Kinetic binding experiments were performed on a single-mixing SX-18 stopped-flow instrument (Applied Photophysics), by mixing a constant concentration (0.5 μM) of C3G dansylated versus increasing concentrations of N-SH3 at 10 °C. Ionic strength dependence of wt N-SH3 was performed with concentrations ranging from 1 to 5 µM for 0 M NaCl condition and from 0.5 to 5 µM for 0.15 M, 0.3 M, 0.5 M and 1 M NaCl, buffer Hepes 50 mM pH 7.0. The excitation wavelength was 280 nm, and fluorescence was collected using a 455 nm cut-off filter. At least, five independent acquisitions were collected and averaged for each experiment. The resulting averages were all satisfactorily fitted with a single-exponential equation. Buffers used for pH dependence were: 50 mM Sodium Acetate pH 5.0, 50 mM Sodium Acetate, pH 5.5, Bis–Tris 50 mM pH 6.0, Bis–Tris 50 mM pH 6.5, Hepes 50 mM pH 7.0, Hepes 50 mM pH 7.5, Tris–HCl 50 mM pH 8.0, Tris–HCl 50 mM pH 8.5, Tris–HCl 50 mM pH 9.0, all with added 0.5 M NaCl. […]

N-SH3 D138A (Crkl) = target: T2, N-SH3 D138A (Crkl) (Homo sapiens, UniProt P46109, D138A); assay: Stopped-flow displacement, N-SH3 D138A:dansylated C3G277–296 complex; type: binding; details: pH 7.5, D138A, 50 mM Hepes pH 7.5, 10 °C
T2 construct: The construct encoding the N-SH3 domain of Crkl was subcloned in a pET28b+ plasmid vector; His-tag; made in house; host or cells: E. coli BL21
T2 sequence (P46109 123-183 D138A limits assumed): as the sequence (P46109 123-183 E140A limits assumed) above, with D16A, A18E counted along it
Experimental: as §1
as §2, with “NaCl. Concentrations of N-SH3 used for each experiment were: 4.0–8.0 µM at pH 5.0, 2.0–7.0 µM at pH 5.5, 1.0–5.0 µM at pH 6.0, 0.5–5.0 µM at pH 6.5, 1.5–6.0 µM at pH 7.0, 0.5–5.0 µM at pH 7.5, 1.5–6.0 µM at pH 8.0, 1.5–6.0 µM pH 8.5, 1.5–6.0 µM at pH 9.0.” for “NaCl.”

[1] = target: T3, N-SH3 domain of Crkl (WT) (Homo sapiens, UniProt P46109); assay: Stopped-flow displacement, N-SH3 WT:dansylated C3G277–296 complex versus nondansylated peptide; type: binding; details: 10 °C
T3 construct: The construct encoding the N-SH3 domain of Crkl was subcloned in a pET28b+ plasmid vector; His-tag; made in house; host or cells: E. coli BL21
T3 sequence (P46109 123-183 limits assumed): as the sequence (P46109 123-183 E140A limits assumed) above, with A18E counted along it
Experimental: as §1
Kinetic binding experiments were performed on a single-mixing SX-18 stopped-flow instrument (Applied Photophysics), by mixing a constant concentration (0.5 μM) of C3G dansylated versus increasing concentrations of N-SH3 at 10 °C. Ionic strength dependence of wt N-SH3 was performed with concentrations ranging from 1 to 5 µM for 0 M NaCl condition and from 0.5 to 5 µM for 0.15 M, 0.3 M, 0.5 M and 1 M NaCl, buffer Hepes 50 mM pH 7.0. The excitation wavelength was 280 nm, and fluorescence was collected using a 455 nm cut-off filter. At least, five independent acquisitions were collected and averaged for each experiment. The resulting averages were all satisfactorily fitted with a single-exponential equation. Buffers used for pH dependence were: 50 mM Sodium Acetate pH 5.0, 50 mM Sodium Acetate, pH 5.5, Bis–Tris 50 mM pH 6.0, Bis–Tris 50 mM pH 6.5, Hepes 50 mM pH 7.0, Hepes 50 mM pH 7.5, Tris–HCl 50 mM pH 8.0, Tris–HCl 50 mM pH 8.5, Tris–HCl 50 mM pH 9.0, all with added 0.5 M NaCl. Concentrations of N-SH3 used for each experiment were: 4.0–8.0 µM at pH 5.0, 2.0–7.0 µM at pH 5.5, 1.0–5.0 µM at pH 6.0, 0.5–5.0 µM at pH 6.5, 1.5–6.0 µM at pH 7.0, 0.5–5.0 µM at pH 7.5, 1.5–6.0 µM at pH 8.0, 1.5–6.0 µM pH 8.5, 1.5–6.0 µM at pH 9.0. For the ionic strength dependence of D138A and E140A variants buffer used were 0.05 M NaCl, 0.1 M NaCl, 0.15 M NaCl, in 50 mM Hepes pH 7.5. Concentrations of N-SH3 D138A used for each experiment were: 2.0–4.5 µM at 0 M NaCl, 2.5–6.0 µM at 0.05 M, 0.1 M, 0.15 M NaCl. Concentrations of N-SH3 E140A used for each experiment were: 2.0–4.5 µM at 0 M NaCl, 3.0–5.5 µM at 0.05 M NaCl, 3.0–5.0 µM at 0.1 M NaCl, 3.0–5.5 µM at 0.15 M NaCl. Displacement kinetic experiments were performed by mixing a preincubated complex of N-SH3 (in all its variants) and dansylated C3G versus a high excess of nondansylated C3G (see text for details). Experiments were performed in the same buffer conditions as the binding experiments, except for D141A variant, for which 20% w/v sucrose was added to the buffer Hepes 50 mM pH 7.0. Displacement traces were fitted with a single-exponential equation.

CC(C)C[C@H](NC(=O)[C@H](C)NC(=O)[C@@H]1CCCN1C(=O)[C@@H]1CCCN1C(=O)[C@@H]1CCCN1C(=O)[C@H](CO)NC(=O)[C@H](CC(N)=O)NC(=O)[C@H](CC(=O)O)NC(=O)[C@@H](NC(=O)[C@@H](NS(=O)(=O)c1cccc2c(N(C)C)cccc12)C(C)C)C(C)C)C(=O)N1CCC[C@H]1C(=O)N1CCC[C@H]1C(=O)N[C@@H](CCCCN)C(=O)N[C@@H](CCCCN)C(=O)N[C@@H](CCCNC(=N)N)C(=O)N[C@@H](CCC(N)=O)C(=O)N[C@@H](CO)C(=O)N[C@@H](C)C(=O)N1CCC[C@H]1C(=O)N[C@@H](CO)C(=O)O [C3G277–296] (Dansyl-VVDNSPPPALPPKKRQSAPS-OH)
kon (N-SH3 E140A (Crkl); 0 M NaCl, 0.5 µM dansylated peptide vs 2.0–4.5 µM N-SH3 E140A): 7.8e+07 ± 6e+06 M⁻¹ s⁻¹
kon (N-SH3 E140A (Crkl); 0.05 M NaCl, 0.5 µM dansylated peptide vs 3.0–5.5 µM N-SH3 E140A): 8.9e+07 ± 8e+06 M⁻¹ s⁻¹
kon (N-SH3 E140A (Crkl); 0.10 M NaCl, 0.5 µM dansylated peptide vs 3.0–5.0 µM N-SH3 E140A): 7.7e+07 ± 8e+06 M⁻¹ s⁻¹
kon (N-SH3 E140A (Crkl); 0.15 M NaCl, 0.5 µM dansylated peptide vs 3.0–5.5 µM N-SH3 E140A): 8.1e+07 ± 8e+06 M⁻¹ s⁻¹
koff (N-SH3 D138A (Crkl); 0 M NaCl): 139 ± 1 s⁻¹
koff (N-SH3 D138A (Crkl); 0.05 M NaCl): 212 ± 2 s⁻¹
koff (N-SH3 D138A (Crkl); 0.10 M NaCl): 183 ± 2 s⁻¹
koff (N-SH3 D138A (Crkl); 0.15 M NaCl): 254 ± 2 s⁻¹
koff ([1]; pH 5, pH 5.0 (50 mM Sodium Acetate), 0.5 M NaCl, displacement): 257 ± 10 s⁻¹
koff ([1]; pH 5.5, pH 5.5 (50 mM Sodium Acetate), 0.5 M NaCl, displacement): 81 ± 3 s⁻¹
koff ([1]; pH 6, pH 6.0 (Bis–Tris 50 mM), 0.5 M NaCl, displacement): 78 ± 3 s⁻¹
koff ([1]; pH 6.5, pH 6.5 (Bis–Tris 50 mM), 0.5 M NaCl, displacement): 65 ± 2 s⁻¹
koff ([1]; pH 7, 0 M NaCl, Hepes 50 mM pH 7.0, displacement by 20–40 µM nondansylated peptide): 12 ± 1 s⁻¹
koff ([1]; pH 7, 0.15 M NaCl, Hepes 50 mM pH 7.0, displacement): 23 ± 1 s⁻¹
koff ([1]; pH 7, 0.3 M NaCl, Hepes 50 mM pH 7.0, displacement): 32 ± 2 s⁻¹
koff ([1]; pH 7, 0.5 M NaCl (ionic strength series), Hepes 50 mM pH 7.0, displacement): 34 ± 1 s⁻¹
koff ([1]; pH 7, 1.0 M NaCl, Hepes 50 mM pH 7.0, displacement): 51 ± 2 s⁻¹
koff ([1]; pH 7, pH 7.0 (Hepes 50 mM), 0.5 M NaCl (pH series), displacement): 42 ± 2 s⁻¹
koff ([1]; pH 7.5, pH 7.5 (Hepes 50 mM), 0.5 M NaCl, displacement): 34 ± 2 s⁻¹
koff ([1]; pH 8, pH 8.0 (Tris–HCl 50 mM), 0.5 M NaCl, displacement): 46 ± 3 s⁻¹
koff ([1]; pH 8.5, pH 8.5 (Tris–HCl 50 mM), 0.5 M NaCl, displacement): 40 ± 3 s⁻¹
koff ([1]; pH 9, pH 9.0 (Tris–HCl 50 mM), 0.5 M NaCl, displacement): 39 ± 2 s⁻¹
